Measurements reported in patent US10952999B2, “Inhibitor of cyclin-dependent kinase CDK9” (GENFLEET THERAPEUTICS (SHANGHAI) INC., priority 2017, dated 2021).

Legend:
[1] = test system: phosphorylation of RNAPII, MCL-1, and c-MYC in NB-4; test: Effect on signaling pathway downstream of CDK9; type: cell-based; settings: NB-4, 0.03-3 μM, 2 hours
Protocol: (§1) Against four cells, acute myelocytic leukemia cell line (AML) OCI-AML-3, acute promyelocytic leukemia cell line NB-4, acute myelocytic leukemia cell line (AML) HL-60 and acute myelocytic leukemia cell line (AML) MV4-11 (all purchased from ATCC), by measuring the biochemical endpoints and functional endpoints of multiple cells, the effect of compound 1 was evaluated on CDK9 in cells and other protein kinases related to its signaling pathway, such as RNAPII, XIAP, MCL-1, c-MYC, BCL-2 and so on. […] The effect of Compound 1 on the phosphorylation of CDK9, RNAPII, XIAP, MCL-1, c-MYC, BCL-2 in these cell lines was determined (FIG. 1a-d).

[2] = test system: phosphorylation of RNAPII, MCL-1, and c-MYC in OCI-AML-3; test: Effect on signaling pathway downstream of CDK9; type: cell-based; settings: OCI-AML-3, 0.03-3 μM, 2 hours
Protocol: as §1

[3] = test system: phosphorylation of RNAPII, MCL-1, and c-MYC in HL-60; test: Effect on signaling pathway downstream of CDK9; type: cell-based; settings: HL-60, 0.03-3 μM, 2 hours
Protocol: as §1

[4] = test system: phosphorylation of RNAPII, MCL-1, and c-MYC in MV4-11; test: Effect on signaling pathway downstream of CDK9; type: cell-based; settings: MV4-11, 0.03-3 μM, 2 hours
Protocol: as §1

[5] = Body weight of mice in the MV4-11 mouse model; type: in vivo; settings: orally per day, Bal b/c mice
Protocol: 24 Bal b/c female mice, 4-6 weeks, were purchased from Shanghai Slack Laboratory Animals Co., Ltd. and kept in SPF laboratory. The drinking water and padding were aseptically treated by autoclaving. All operations were carried out under aseptic conditions. On day 0, 5×10^6MV4-11 acute granulocyte leukemia cells (purchased from ATCC) were subcutaneously injected into the left side of all mice' back. Starting on day 15, all mice were divided into four groups (6 mice per group), methyl cellulose (HKI) solvent was orally administered to the first group of mice per day; compound 1 at a dose of 10 mg/kg mice body weight was orally administered to the second group of mice per day; compound 1 at a dose of 20 mg/kg mice body weight was orally administered to the third group of mice per day; compound 1 at a dose of 30 mg/kg mice body weight was orally administered to the fourth group of mice per day. From the start of administration, the length/width of the subcutaneous tumor was measured with a vernier caliper every day, and the body weight of the mouse was recorded every day, and the effect of compound 1 on the body weight of the mouse was observed. […] The trend of subcutaneous tumor growth was counted within day 16 to day 43, and the tumor volume was calculated as: length×width×width/2 mm^3.

[6] = test system: human non-small cell lung cancer cell H1915; test: Cancer cell growth, Cell Titer-Glo cell viability assay, 72 hours; type: cell-based; settings: NCI-H1915, H1915, 72 hours
Source text: (§2) In the examples, we used acute myelocytic leukemia (AML) OCI-AML-3, acute promyelocytic leukemia cell line NB-4, MDS-RAEB (myelodysplastic syndrome-excess blasts type) cell line SKM-1, human leukemia cell Nomo-1, acute myeloid leukemia cell line MOLM14, acute myeloid leukemia cell line MOLM13, acute myeloid leukemia cell line MV4-11, acute myeloid leukemia cell line HL-60, acute myeloid leukemia cell line OCI-AML-2, histiocytic lymphoma U-937, acute B cell leukemia cell line MEC-1, acute B cell leukemia cell line MEC-2, acute megakaryoblastic leukemia CMK, hamster lung cell CHL, hamster ovary cell CHO, human non-small cell lung cancer cell H1975, human non-small cell lung cancer cell H358, human small cell lung cancer cell H209, human lung adenocarcinoma cell H1395, human non-small cell lung cancer cell PC-9, human lung cancer cell H3122, human non-small cell lung cancer cell H2122, human non-small cell lung cancer cell H1915, human lung adenocarcinoma cell H1355, human non-small cell lung cancer cell HCC827, human breast cancer cell MDA-MB-231, human breast cancer cell MDA-MB-468, human breast cancer cell MCF-7, human breast cancer cell T47D, human breast cancer cell SK-Br-3, the above cells were purchased from ATCC.
(§3) Cell Titer-Glo® (Promega, USA) chemical self-luminescence cell viability assay kit was used to detect the number of viable cells by quantitatively measuring ATP in living cells, according to which to calculate GI50 and IC50.

hamster lung cell CHL = test: as above; type: cell-based
Source text: as §2, §3

[7] = test system: human non-small cell lung cancer cell H358; test: as above; type: cell-based; settings: NCI-H358, H358, 72 hours
Source text: as §2, §3

[8] = test system: human non-small cell lung cancer cell H1975; test: as above; type: cell-based; settings: NCI-H1975, H1975, 72 hours
Source text: as §2, §3

[9] = test system: acute myeloid leukemia cell line HL-60; test: as above; type: cell-based; settings: Homo sapiens; HL-60, 72 hours
Source text: as §2, §3

[10] = test system: human breast cancer cell SK-Br-3; test: as above; type: cell-based; settings: SK-Br-3, 72 hours
Source text: as §2, §3

[11] = test system: acute myeloid leukemia cell line OCI-AML-2; test: as above; type: cell-based; settings: Homo sapiens; OCI-AML2, 72 hours
Source text: as §2, §3

[12] = test system: human breast cancer cell MDA-MB-468; test: as above; type: cell-based; settings: MDA-MB-468, 72 hours
Source text: as §2, §3

[13] = test system: MDS-RAEB (myelodysplastic syndrome-excess blasts type) cell line SKM-1; test: as above; type: cell-based; settings: Homo sapiens; SKM-1, 72 hours
Source text: as §2, §3

[14] = test system: human non-small cell lung cancer cell PC-9; test: as above; type: cell-based; settings: PC-9, 72 hours
Source text: as §2, §3

[15] = test system: human breast cancer cell T47D; test: as above; type: cell-based
Source text: as §2, §3

[16] = test system: acute myeloid leukemia cell line MOLM14; test: as above; type: cell-based; settings: Homo sapiens; MOLM-14, 72 hours
Source text: as §2, §3

[17] = test system: human lung adenocarcinoma cell H1355; test: as above; type: cell-based; settings: NCI-H1355, H1355, 72 hours
Source text: as §2, §3

[18] = test system: human non-small cell lung cancer cell HCC827; test: as above; type: cell-based; settings: HCC827, 72 hours
Source text: as §2, §3

[19] = test system: acute B cell leukemia cell line MEC-2; test: as above; type: cell-based; settings: MEC2; MEC-2, 72 hours
Source text: as §2, §3

[20] = test system: human non-small cell lung cancer cell H2122; test: as above; type: cell-based; settings: NCI-H2122, H2122, 72 hours
Source text: as §2, §3

IC50 [6]: 37 nM
GI50 (hamster lung cell CHL; CHL, 72 hours): 1100 nM
IC50 [7]: 43 nM
IC50 [8]: 42 nM
GI50 [9]: 32 nM
IC50 [10]: 40 nM
GI50 [11]: 33 nM
IC50 [12]: 18 nM
GI50 [13]: 33 nM
IC50 [14]: 90 nM
IC50 [15]: 55 nM
GI50 [16]: 25 nM
IC50 [17]: 100 nM
IC50 [18]: 60 nM
GI50 [19]: 25 nM
IC50 [20]: 49 nM
Structure (SMILES): COC[C@@H](C)N[C@H]1CC[C@H](Nc2cc(-c3csc(NCC4(C#N)CCOCC4)n3)c(Cl)cn2)CC1 [Compound 1, 4-(((4-(5-chloro-2-(((1R,4r)-4-(((R)-1-methoxypropyl-2-yl)amino)cyclohexyl)amino)pyridin-4-yl)thiazol-2-yl)amino)methyl)tetrahydro-2H-pyran-4-carbonitrile]
effect on the phosphorylation of RNAPII, MCL-1, and c-MYC directly downstream of CDK9 protein [1]: significant inhibitory effect
effect on the phosphorylation of RNAPII, MCL-1, and c-MYC directly downstream of CDK9 protein [2]: significant inhibitory effect
effect on the phosphorylation of RNAPII, MCL-1, and c-MYC directly downstream of CDK9 protein [3]: significant inhibitory effect
effect on the phosphorylation of RNAPII, MCL-1, and c-MYC directly downstream of CDK9 protein [4]: significant inhibitory effect
effect on the body weight of mice ([5]; high dose group (20, 30 mg/kg)): affected the body weight
effect on the body weight of mice ([5]; low dose group (10 mg/kg)): no significant effect
inhibitory effect on normal cell CHL (in words) (hamster lung cell CHL; CHL cells): no inhibitory effect
